Experimental findings from patent publication US10844049B2, “GLP-1R agonists and uses thereof” (QILU REGOR THERAPEUTICS INC., priority 2018, dated 2020) are described below.

SMILES strings stand for the structures.

A short description of series [1]: Monkey oral pharmacokinetic (PK) study, non-naïve Cynomolgus male monkeys. It is filed as in vivo. The settings on record: for plasma concentration-time profile: PO, over about 24 hours after oral dosing; for Tmax / bioavailability: male, cynomolgus monkey, plasma; for Tmax / bioavailability / AUC0-24 h / Cmax: oral. As to the method: (§1) Appropriate volumes of vehicles (e.g., 2% Tween 80 (v:v) and 0.5% MC (w:v) in saline or 0.5% MC (w:v) in water were then added into the mortar containing the ground compounds, and the mixture was then grinded with a pestle until a homogeneous paste was formed. Additional appropriate volumes of vehicles were added into the mortar containing each compound, and the mixture was grinded further with the pestle until a homogeneous suspension was obtained.
(§2) The rest of the vehicle was added to make up the final dosing volume of about 1 mg/mL or 2 mg/mL (i.e., final dosing volume of about 5 mL/kg), and the homogenous suspension was continuously stirred prior to and during the dosing.
(§3) Non-naïve Cynomolgus male monkeys (n=3/test article; sourced from Hainan Jingang Biotech Co., Ltd., Nayang Xmtan, Fucheng Town, Qiongshan District, Haikou City, Hainan Province, China); or non-naïve aged, obese, and diabetic male Macaca fascicularis monkeys (n=3/test article, Source: Kunming Biomed International Colony) were used in pre-clinical in vivo studies. All non-naïve Cynomolgus male monkeys were approximately 3 to 5 years old, weighed about 2.5-5 kg, and were within ±20% of the average body weight. All non-naïve aged, obese, and diabetic male Macaca fascicularis monkeys were approximately 12 to 20 years old, weighed about >8-12 kg.
(§4) All animals were fasted overnight before dosing, and the food were supplied approximately 4 hours post dose (with free access to water all the time).
(§5) Animals were restrained at designated time points for blood sampling. Approximately 500 μL of blood samples was taken via cephalic or saphenous vein into EDTA-K2 tubes. Blood samples were put on wet ice before centrifugation.
(§6) For oral administration (PO) of either Dose 1 or Dose 2: blood samples were collected at pre-dose, and at 15 min, 30 min, 1 hr, 2 hr, 4 hr, (6 hr for compounds 19 and 28 with cynomolgus monkeys only), 8 hr, 12 hr, and 24 hr post dose (i.e., 9 or 10 total time points for each compound at each dose).
(§7) The blood samples were centrifuged at approximately 2,000-4,000 rpm for about 10-15 minutes at 2-8′C, and each resulting plasma portion was then transferred into an individual tube.
(§8) LC-MS/MS methods were developed, and bioanalysis for the test articles in monkey plasma was performed according to the developed LC-MS/MS methods.
Undiluted plasma samples: An aliquot of 20-50 μL plasma sample was mixed with 200 μL of ACN or MeOH containing one of the internal standards (IS, e.g., Diclofenac or Terfenadine). The mixture was then vortexed for about 1-5 min, and centrifuged at about 4,000-5,800 rpm for about 10-15 min. An aliquot of 1 μL supernatant was used for LC-MS/MS analysis.
(§9) Pharmacokinetics parameters, including area under the curve (AUC0-t), maximum plasma concentration (Cmax), time to reach maximum plasma concentration (Tmax), oral bioavailability (F %), etc., were calculated using Phoenix software (Version 6.4) and non-compartment model.

The nature of series [2]: Monkey oral pharmacokinetic (PK) study, aged, obese, and diabetic male monkeys. Format: in vivo. The settings on record: Dose 2, non-naïve aged, obese, and diabetic male Macaca fascicularis monkeys. The method, then:
as §1, §2, §3, §4, §5, §6, §7, §8
Undiluted plasma samples: An aliquot of 20-50 μL plasma sample was mixed with 200 μL of ACN or MeOH containing one of the internal standards (IS, e.g., Diclofenac or Terfenadine). […]
as §9

Take `N#Cc1ccc(COc2cccc(C3=CCN(Cc4nc5ccc(C(=O)O)cc5n4C[C@@H]4CCO4)CC3)n2)c(F)c1` [Compound 19, (S)-2-((4-(6-(4-cyano-2-fluorobenzyloxy)pyridin-2-yl)-5,6-dihydropyridin-1(2H)-yl)methyl)-1-(oxetan-2-ylmethyl)-1 h-benzo[d]imidazole-6-carboxylic add]: the plasma concentration-time profile result in series [1] is on record as “sustained at a more constant level”. In series [1] (Dose 1), the Tmax turned out to be 2.7 h, the bioavailability came to 10.8%, the AUC0-24 h was determined as 1130 Arbitrary units and the Cmax is recorded as 125 Arbitrary unit. In series [2], this molecule showed an AUC0-24 h of 2470 Arbitrary units and a Cmax of 413 Arbitrary unit. Moreover, in series [2] (cynomolgus monkey, plasma), the Tmax came to 8.8 h and the bioavailability was 15.5%.
In the case of `O=C(O)c1ccc2nc(CN3CC=C(c4cccc(OCc5ccc(Cl)cc5F)c4)CC3)n(C[C@@H]3CCO3)c2c1` [Compound 28, (S)-2-((4-(3-((4-chloro-2-fluorobenzyl)oxy)phenyl)-3,6-dihydropyridin-1(2H)-yl)methyl)-1-(oxetan-2-ylmethyl)-1 h-benzo[d]imidazole-6-carboxylic add], the plasma concentration-time profile entry in series [1] is given as “sustained at a more constant level”. In addition, in series [1] (Dose 1), the time to peak (Tmax) stood at 3.3 h, the bioavailability came out at 56.1%, the AUC0-24 h is 24900 Arbitrary units and the Cmax turned out to be 3910 Arbitrary unit.
On to `O=C(O)c1ccc2nc(CN3CC=C(c4ccc(F)c(OCc5ccc(Cl)cc5F)c4)CC3)n(C[C@@H]3CCO3)c2c1` [Compound 29, (S)-2-((4-(3-((4-chloro-2-fluorobenzyl)oxy)-4-fluorophenyl)-3,6-dihydropyridin-1(2H)-yl)methyl)-1-(oxetan-2-ylmethyl)-1 h-benzo[d]imidazole-6-carboxylic acid], for which, in series [1], the plasma concentration-time profile entry was “sustained at a more constant level”. Moreover, in series [1] (Dose 2), the Tmax is 1.2 h, the bioavailability stood at 41%, the AUC0-24 h is 21800 Arbitrary units and the Cmax is listed as 3380 Arbitrary unit.
For `N#Cc1ccc(COc2cccc(C3=CCN(Cc4nc5ccc(C(=O)O)nc5n4C[C@@H]4CCO4)CC3)n2)c(F)c1` [Compound 225, (S)-2-((6-((4-cyano-2-fluorobenzyl)oxy)-3′,6′-dihydro-[2,4′-bipyridin]-1′(2′H)-yl)methyl)-3-(oxetan-2-ylmethyl)-3H-imidazo[4,5-b]pyridine-5-carboxylic add] the same measures were “sustained at a more constant level”, 4 h, 9.93%, 1500 Arbitrary units and 184 Arbitrary unit.
